Laboratory results taken from patent publication US11083725B2 (priority 2014, dated 2021).

Test system: NHBE cells
Assay: Biolog metabolic array: substrate use by NHBE cells with or without CA09 infection
Format: cell-based, human
Details: for Substrate use, 590 nm absorbance normalized to zero hour, 0 hr: Biolog PMM2, 0 hr; for Substrate use, 590 nm absorbance normalized to zero hour, 1 hr: Biolog PMM2, 1 hr; for Substrate use, 590 nm absorbance normalized to zero hour, 5 hr: Biolog PMM2, 5 hr; for Substrate use, 590 nm absorbance normalized to zero hour, 7 hr: Biolog PMM2, 7 hr
[1] = Control (uninfected) NHBE cells
[2] = Virus (CA09-infected NHBE cells, MOI 1)
[3] = Virus: CA09-infected NHBE cells, MOI 1, Biolog PMM2
[4] = Virus (CA09-infected, MOI 1) NHBE cells

Compound | 590 nm absorbance normalized to zero hour (substrate use), 0 hr [1] | 590 nm absorbance normalized to zero hour (substrate use), 1 hr [1] | 590 nm absorbance normalized to zero hour (substrate use), 2 hr [1] | 590 nm absorbance normalized to zero hour (substrate use), 3 hr [1] | 590 nm absorbance normalized to zero hour (substrate use), 4 hr [1] | 590 nm absorbance normalized to zero hour (substrate use), 6 hr [1] | 590 nm absorbance normalized to zero hour (substrate use), 8 hr [1] | 590 nm absorbance normalized to zero hour (substrate use), 9 hr [1] | 590 nm absorbance normalized to zero hour (substrate use), 10 hr [1] | 590 nm absorbance normalized to zero hour (substrate use), 11 hr [1] | Substrate use, 590 nm absorbance normalized to zero hour, 0 hr [1] | Substrate use, 590 nm absorbance normalized to zero hour, 1 hr [1] | Substrate use, 590 nm absorbance normalized to zero hour, 5 hr [1] | Substrate use, 590 nm absorbance normalized to zero hour, 7 hr [1] | 590 nm absorbance normalized to zero hour (substrate use), 0 hr [3] | 590 nm absorbance normalized to zero hour (substrate use), 1 hr [3] | 590 nm absorbance normalized to zero hour (substrate use), 2 hr [3] | 590 nm absorbance normalized to zero hour (substrate use), 3 hr [3] | 590 nm absorbance normalized to zero hour (substrate use), 5 hr [3] | 590 nm absorbance normalized to zero hour (substrate use), 6 hr [3] | also measured
CO[C@H]1O[C@H](CO)[C@@H](O)[C@H](O)[C@@H]1O [a-Methyl-D-Mannoside] | 1.00 | 1.26 | 1.58 | 1.74 | 1.89 | 2.77 | 2.13 | 2.16 | 2.95 | 2.58 | 1.00 | 1.26 | 2.33 | 2.46 | 1.00 | 0.38 | 0.54 | 0.64 | 0.83 | 0.89 | 590 nm absorbance normalized to zero hour (substrate use), 0 hr [2]: 1.00; 590 nm absorbance normalized to zero hour (substrate use), 1 hr [2]: 0.38; 590 nm absorbance normalized to zero hour (substrate use), 2 hr [2]: 0.54; 590 nm absorbance normalized to zero hour (substrate use), 3 hr [2]: 0.64; 590 nm absorbance normalized to zero hour (substrate use), 4 hr [2]: 0.69; 590 nm absorbance normalized to zero hour (substrate use), 5 hr [2]: 0.83; 590 nm absorbance normalized to zero hour (substrate use), 6 hr [2]: 0.89; 590 nm absorbance normalized to zero hour (substrate use), 7 hr [2]: 0.93; 590 nm absorbance normalized to zero hour (substrate use), 8 hr [2]: 0.99; 590 nm absorbance normalized to zero hour (substrate use), 9 hr [2]: 1.10; 590 nm absorbance normalized to zero hour (substrate use), 10 hr [2]: 1.14; 590 nm absorbance normalized to zero hour (substrate use), 11 hr [2]: 1.24; 590 nm absorbance normalized to zero hour (substrate use), 4 hr [3]: 0.69; 590 nm absorbance normalized to zero hour (substrate use), 7 hr [3]: 0.93; 590 nm absorbance normalized to zero hour (substrate use), 8 hr [3]: 0.99; 590 nm absorbance normalized to zero hour (substrate use), 9 hr [3]: 1.10; 590 nm absorbance normalized to zero hour (substrate use), 10 hr [3]: 1.14; 590 nm absorbance normalized to zero hour (substrate use), 11 hr [3]: 1.24
Chondroitin Sulfate C | 1.00 | 1.60 | 1.94 | 2.10 | 2.19 | 3.28 | 2.56 | 2.92 | 3.00 | 2.49 | 1.00 | 1.60 | 2.50 | 2.63 | 1.00 | 1.22 | 1.41 | 1.45 | 1.62 | 1.61 | 590 nm absorbance normalized to zero hour (substrate use), 0 hr [2]: 1.00; 590 nm absorbance normalized to zero hour (substrate use), 1 hr [2]: 1.22; 590 nm absorbance normalized to zero hour (substrate use), 2 hr [2]: 1.41; 590 nm absorbance normalized to zero hour (substrate use), 3 hr [2]: 1.45; 590 nm absorbance normalized to zero hour (substrate use), 5 hr [2]: 1.62; 590 nm absorbance normalized to zero hour (substrate use), 6 hr [2]: 1.61; 590 nm absorbance normalized to zero hour (substrate use), 7 hr [2]: 1.63; 590 nm absorbance normalized to zero hour (substrate use), 8 hr [2]: 1.65; 590 nm absorbance normalized to zero hour (substrate use), 9 hr [2]: 1.72; 590 nm absorbance normalized to zero hour (substrate use), 10 hr [2]: 1.69; 590 nm absorbance normalized to zero hour (substrate use), 11 hr [2]: 1.75; 590 nm absorbance normalized to zero hour (substrate use), 7 hr [3]: 1.63; 590 nm absorbance normalized to zero hour (substrate use), 8 hr [3]: 1.65; 590 nm absorbance normalized to zero hour (substrate use), 9 hr [3]: 1.72; 590 nm absorbance normalized to zero hour (substrate use), 10 hr [3]: 1.69; 590 nm absorbance normalized to zero hour (substrate use), 11 hr [3]: 1.75
CO[C@@H]1O[C@H](CO)[C@H](O)[C@H](O)[C@H]1O [b-Methyl-D-Galactoside] | 1.00 | 0.52 | 0.68 | 0.78 | 0.87 | 1.28 | 1.24 | 1.36 | 1.54 | 1.61 | 1.00 | 0.52 | 1.05 | 1.17 | 1.00 | 0.74 | 0.95 | 1.11 | 1.36 | 1.45 | 590 nm absorbance normalized to zero hour (substrate use), 0 hr [4]: 1.00; 590 nm absorbance normalized to zero hour (substrate use), 1 hr [4]: 0.74; 590 nm absorbance normalized to zero hour (substrate use), 2 hr [4]: 0.95; 590 nm absorbance normalized to zero hour (substrate use), 3 hr [4]: 1.11; 590 nm absorbance normalized to zero hour (substrate use), 4 hr [4]: 1.18; 590 nm absorbance normalized to zero hour (substrate use), 5 hr [4]: 1.36; 590 nm absorbance normalized to zero hour (substrate use), 6 hr [4]: 1.45; 590 nm absorbance normalized to zero hour (substrate use), 7 hr [4]: 1.52; 590 nm absorbance normalized to zero hour (substrate use), 8 hr [4]: 1.60; 590 nm absorbance normalized to zero hour (substrate use), 9 hr [4]: 1.76; 590 nm absorbance normalized to zero hour (substrate use), 10 hr [4]: 1.81; 590 nm absorbance normalized to zero hour (substrate use), 11 hr [4]: 1.96; 590 nm absorbance normalized to zero hour (substrate use), 4 hr [3]: 1.18; 590 nm absorbance normalized to zero hour (substrate use), 7 hr [3]: 1.52; 590 nm absorbance normalized to zero hour (substrate use), 8 hr [3]: 1.60; 590 nm absorbance normalized to zero hour (substrate use), 9 hr [3]: 1.76; 590 nm absorbance normalized to zero hour (substrate use), 10 hr [3]: 1.81; 590 nm absorbance normalized to zero hour (substrate use), 11 hr [3]: 1.96
O=C(CO)[C@@H](O)[C@@H](O)[C@H](O)CO [Tagatose] |  |  |  |  |  |  |  |  |  |  |  |  |  |  |  |  |  |  |  |  | 590 nm absorbance normalized to zero hour (substrate use), 11 hr [4]: 0.48
